Patent publication EP3572468B1, “CYANINE DYES AND THEIR USAGE FOR IN VIVO STAINING OF MICROORGANISMS” (PHILIPPS-UNIVERSITÄT MARBURG, priority 2018, dated 2019)
“Also recorded” adds a separate entry of the source.

Assays:
[1] = target: dsDNAhGC (double-stranded DNA hairpin with the consensus sequence GGCCC); experiment: Fluorescence titration with hairpin dsDNAhGC, binding affinity by DynaFit; settings: 1 µM dye in 10 mM Tris pH 7.6 and 50 mM KCI, 20°C, emission at 650 nm, 1:1 binding model, read-out: binding affinity (KD, apparent dissociation constant)
Protocol: Fluorescence measurements and tritations were performed on a Jasco FP-6500 spectrofluorometer equipped with a Thermo Haake WKL 26 water recirculator at 20°C. Unless otherwise noted, a 1400 µL fluorescence cuvette of HellmaAnalytics (104F-QS) was used and the measurements were performed with the following settings: increment: 1.0 nm; integration time: 0.2 s; speed: 500 nm/min; sensitivity: medium; excitation slit width: 3 nm; emission slit width: 3 nm; excitation wavelength 610 nm. The emission spectra were recorded from 625 to 750 nm at 20°C. From all spectra, the corresponding background signal was substracted. […] Table 1: Binding sites and sequences of DNA hairpins, which were used for fluorescence titrations experiments.
All fluorescence titrations followed the same procedure: to 1 mL of 1 µM solution of corresponding cyanine dye derivative in 10 mM Tris pH 7.6 and 50 mM KCI aliquots of a stock solution of the corresponding annealed DNA (dsDNAhAT and dsDNAhGC = 435 µM; dsDNACT = 0.65 mM) were successively added and the fluorescence spectra were recorded in a range from 625-750 nm after 1 min of each addition. […] The fluorescence emission plotted is the resulting mean of the three independent measurements. […]
All binding affinities were determined by fitting the obtained experimental data in the DynaFit 4.0 software. […]

[2] = tested on: antibiotic-sensitive Klebsiella pneumoniae (K. pneumoniae); experiment: Bacteria culture and staining: growth and FACS labeling of sensitive K. pneumoniae; format: cell-based; settings: 2.5 µM dye
Protocol: (§1) Escherichia coli (E. coli) NEB5α (New England Biolabs) and antibiotic-resistant and -sensitive Klebsiella pneumoniae (K. pneumoniae) were cultured in Luria-Bertani (LB) solid medium (LB-Agar) overnight at 37°C. The source of the K. pneumoniae strands is of no relevance to the invention. The invention may be applied to all types of microorganisms (bacteria, viri, fungi etc.) or other cells, either contained within a sample or isolated from a sample. For staining, growth curve analysis and replating experiments bacteria were suspended in LB liquid medium at an OD600 nm of 1.0 and 800 µL were transferred into a culture tube containing 7.2 mL of LB liquid medium supplemented with DMSO or candidate dyes (2.5 µM) final concentration). Density of bacterial cultures was measured using an Ultrospec 10 Cell Density Meter with 600 nm LED source (Amersham Biosciences). […]
(§2) Bacteria and macrophages were washed with PBS prior to flow cytometry and analysed using a Guava easyCyte flow cytometer (Millipore). FCS3.0 files were analysed using Flowing Software (http://flowingsoftware.btk.fi/). Cells were first gated in the forward- / side-scatter plot to exclude debries, followed by quadrant gating in plots using the fluorescence channels as shown above. […] Propidium iodide signal was recorded in the yellow channel.

[3] = tested on: antibiotic-resistant Klebsiella pneumoniae (K. pneumoniae); format: cell-based; settings: 2.5 µM dye
Protocol: as §1, §2

[4] = Molar extinction coefficient determination; format: physicochemical; settings: in milli-Q water; absorbance maximum at 625 nm
Protocol: The concentration determination and measurement of full UV-Vis spectra were performed on a Tecan 20M at room temperature. The measurements were performed in a 1400 µL quarz cuvette with a pathlength of 1 cm in a volume of 1 mL.
For the accurate determination of our compounds 6-TramTO-3 the extinction coefficient was calculated. A specific amount (< 2.00 mg) of the compound was weighted on a Mettler Toledo XP6 and dissolved in a known amount of milli-Q water. Increasing amounts of such stock solution were added into a 1 mL cuvette filled with 1 ml of milli-Q water. The corresponding absorbance of each addition was measured on a Tecan Spark 20M at the maximum at 625 nm and without exceeding 10% of the initial volume. In all the cases the absorbance was between 0.1 and 1 AU. to be in concordance with Lambert-Beer law (equation E2). A = ε l c [formula]
In this equation (E2): A = absorbance of the solution; I = length of the cuvette; c = concentration; ε = molar extinction coefficient.
The lineal regression of the obtained absorbance measurements versus the concentrations of 6-TramTO-3 allowed us to obtain the molar extinction coefficient. These measurements were repeated three times independently i.e. from three different stock solutions. The mean extinction coefficient and the standard deviation of 6-TramTO-3 at a wavelength of 625 nm in milli-Q water was 59403 ±646 M^-1cm^-1.
The mean extinction coefficient and the standard deviation of 6-NH2TO-3 and 6-AzTO-3 were determined following the above described procedure. The extinction coefficient of 6-NH2TO-3 was determined in milli-Q water, whereas the extinction coefficient of 6-AzTO-3 was determined in DMSO due to its low aqueous solubility. […] For the spectrum of 6-AzTO-3 1% of DMSO was added for a better solubility. Fig. 20 and Fig. 21 show the linear regressions from the three independent measurements. Table 4 summarized the molar extinction coefficient obtained. Table 4: Determined mean extinction coefficients and standard deviations of 6-AzTO-3 in DMSO and 6-TramTO-3 and 6-NH2TO-3 in milli-Q water.

[5] = tested on: Escherichia coli (E. coli) NEB5α; experiment: Bacteria culture and staining: growth and FACS labeling of E. coli; format: cell-based
Protocol: Escherichia coli (E. coli) NEB5α (New England Biolabs) and antibiotic-resistant and -sensitive Klebsiella pneumoniae (K. pneumoniae) were cultured in Luria-Bertani (LB) solid medium (LB-Agar) overnight at 37°C. The source of the K. pneumoniae strands is of no relevance to the invention. The invention may be applied to all types of microorganisms (bacteria, viri, fungi etc.) or other cells, either contained within a sample or isolated from a sample. For staining, growth curve analysis and replating experiments bacteria were suspended in LB liquid medium at an OD600 nm of 1.0 and 800 µL were transferred into a culture tube containing 7.2 mL of LB liquid medium supplemented with DMSO or candidate dyes (2.5 µM) final concentration). Density of bacterial cultures was measured using an Ultrospec 10 Cell Density Meter with 600 nm LED source (Amersham Biosciences). For bacterial re-plating experiments bacteria were sampled at OD600 nm = 2.0 and 5 µL of indicated dilutions in LB-medium were spotted onto LB-agar plates (Fig. 5) or 100 µL were plated onto LB-agar plates followed by incubation at 37°C until colonies became visible.
Bacteria and macrophages were washed with PBS prior to flow cytometry and analysed using a Guava easyCyte flow cytometer (Millipore). FCS3.0 files were analysed using Flowing Software (http://flowingsoftware.btk.fi/). Cells were first gated in the forward- / side-scatter plot to exclude debries, followed by quadrant gating in plots using the fluorescence channels as shown above. For discrimination of live/dead cell discrimination cells in PBS were supplemented with 0.4 µL/mL propidium-iodide (5 mg/ml solution) followed by 5 min incubation on ice. Propidium iodide signal was recorded in the yellow channel.

CC[n+]1ccc(/C=C/C=C2\Sc3ccccc3N2CCCCCCn2cc(CN)nn2)c2ccccc21.[I-] [6-TramTO-3, 4-((1E,3Z)-3-(3-(6-(4-(aminomethyl)-1H-1,2,3-triazol-1-yl)hexyl)benzo[d]thiazol-2(3H)-ylidene)prop-1-en-1-yl)-1-ethylquinolin-1-ium iodide]
Kd [1]: 104 ± 54 nM
bacterial growth in presence of dye [2]: grew normally
fluorescent labeling of live bacteria (FACS) ([2]; OD600 = 2.0): successfully fluorescently labeled
bacterial growth in presence of dye [3]: grew normally
fluorescent labeling of live bacteria (FACS) ([3]; OD600 = 2.0): successfully fluorescently labeled
mean extinction coefficient [4]: 59403 ± 646 M⁻¹ cm⁻¹
bacterial growth in presence of dye ([5]; 2.5 µM dye in LB medium, OD600 over time, liquid and solid medium): fully compatible with normal bacterial growth; also recorded: grew normally
fluorescent labeling of live bacteria (FACS) ([5]; 2.5 µM dye in culture medium, FACS at mid-exponential growth phase (OD600 = 2.0)): successfully fluorescently labeled
